Assay [1] concerns L1210. As to the kind of experiment: Antitumor activity was evaluated in vitro on a L1210 tumor cell line. It is filed as functional, cell-based. Conditions: Mus musculus.
Assay [2] concerns L1210. As to the kind of experiment: Antitumor activity was evaluated in vitro on a L1210 tumor cell line; IA means inactive. The note with it: Mus musculus. It is filed as functional, cell-based.

Active and inactive are the calls of the source. The calls are words filed in the database; no cut-off is given here.

As for `Cc1nn(C)c2c1N=C[C@@H]1CCCN1C2=O`, the IC50 – broadly, the point on the concentration scale where inhibition reaches its midpoint – in the assay with L1210 [1] is 22.4 µM. On to `Cc1nn(C)c2c1NC[C@@H]1CCCN1C2=O`, for which the outcome in the assay on L1210 [2] was inactive.

For `CSC1=Nc2c(nn(C)c2C)C(=O)N2CCC[C@@H]12`, the outcome with L1210 [2] was inactive. With `Cc1c2c(nn1C)C(=O)N1CCC[C@H]1CN2`, in the assay on L1210 [2], the outcome was inactive.

As to `Cc1c2c(nn1C)C(=O)N1CCC[C@H]1C=N2`, it took 8.84 µM to reach half-maximal inhibition in the assay with L1210 [1] (IC50). In the case of `CSC1=Nc2c(C)nn(C)c2C(=O)N2CCC[C@@H]12`, the result in the assay on L1210 [2] was inactive.

For the origin of these results see ChEMBL document CHEMBL1127146, “Synthesis and antitumor activity of a new class of pyrazolo[4,3-e]pyrrolo[1,2-a][1,4]diazepinone analogs of pyrrolo[1,4]benzodiazepines (PBDs)” (Bioorg Med Chem Lett, 1993).
